Source: patent US8618107B2 (Gilead Connecticut, Inc., priority 2010, dated 2013)
pEC50, pIC50: −log10 of the molar value.

Key:
[1] = tested on: CD86 surface expression on CD19+/7AAD- mouse splenocytes stimulated with IgM; assay: CD86 Inhibition Assay; assay type: cell-based; details: Splenocyte; total mouse splenocytes (Balb/c), IgM stimulation 24 hr
Experimental: Following the 24 hr incubation, cells are transferred to conical bottom clear 96-well plates and pelleted by centrifugation at 1200×g×5 min. […] Cells are sorted on a BD FACSCalibur and gated on the CD19^+/7AAD^− population. The levels of CD86 surface expression on the gated population is measured versus test compound concentration.

[2] = tested on: CD69 on CD20 positive cells in human whole blood stimulated by anti-IgM; assay: CD69 Whole Blood Assay; assay type: cell-based; details: anti-human IgM stimulation, 20 hours
Experimental: Human blood is obtained from healthy volunteers, with the following restrictions: 1 week drug-free, non-smokers. Blood (approximately 20 mls to test 8 compounds) is collected by venipuncture into Vacutainer® (Becton, Dickinson and Co.) tubes with sodium heparin.
Solutions of Formula I compounds at 10 mM in DMSO are diluted 1:10 in 100% DMSO, then are diluted by three-fold serial dilutions in 100% DMSO for a ten point dose-response curve. The compounds are further diluted 1:10 in PBS and then an aliquot of 5.5 μl of each compound is added in duplicate to a 2 ml 96-well plate; 5.5 μl of 10% DMSO in PBS is added as control and no-stimulus wells. Human whole blood—HWB (100 μl) is added to each well. After mixing the plates are incubated at 37° C., 5% CO2, 100% humidity for 30 minutes. Goat F(ab′)2 anti-human IgM (10 μl of a 500 μg/ml solution, 50 μg/ml final) is added to each well (except the no-stimulus wells) with mixing and the plates are incubated for an additional 20 hours. At the end of the 20 hour incubation, samples are incubated with fluorescent labeled antibodies for 30 minutes, at 37° C., 5% CO2, 100% humidity. Include induced control, unstained and single stains for compensation adjustments and initial voltage settings. Samples are then lysed with PharM Lyse™ (BD Biosciences Pharmingen) according to the manufacturer's instructions. Samples are then transferred to a 96 well plate suitable to be run on the BD Biosciences HTS 96 well system on the LSRII machine. Data acquired and Mean Fluorescence Intensity values were obtained using BD Biosciences DIVA Software. Results are initially analyzed by FACS analysis software (Flow Jo). […] The IC50 values are calculated by Prism version 5, using a nonlinear regression curve fit.

Row | Structure (SMILES) | pEC50 [1] | pIC50 [2]
1 | CN1CCN(c2ccc(Nc3cc(-c4cc(F)cc(N5CCn6c(cc7c6CCCC7)C5=O)c4CO)cn(C)c3=O)nc2)CC1 [Example 197, 2-(5-fluoro-2-(hydroxymethyl)-3-(1-methyl-5-(5-(4-methylpiperazin-1-yl)pyridin-2-ylamino)-6-oxo-1,6-dihydropyridin-3-yl)phenyl)-3,4,6,7,8,9-hexahydropyrazino[1,2-a]indol-1(2H)-one] | 7.66 | 7.64
2 | CN1CCCC1c1ccc(Nc2cc(-c3cc(F)cc(N4CCc5c(sc6c5CCCC6)C4=O)c3CO)cn(C)c2=O)nc1 (stereo in doubt) [Example 313, 5-[5-Fluoro-2-(hydroxymethyl)-3-(1-methyl-5-{[5-(2S)-(1-methylpyrrolidin-2-yl)pyridine-2-yl]amino}-6-oxo-1,6-dihydropyridin-3-yl)phenyl]-8-thia-5-azatricyclo[7.4.0.0^2,7]trideca-1(9),2(7)-dien-6-one] | 8.22 | 7.36
